Experimental data as given in US20110243844A1, “SULFONAMIDE DERIVATIVE METABOTROPIC GLUTAMATE R4 LIGANDS” (priority 2008, published 2011).

Tests used:
[1] = target: T1, mGluR4 (Homo sapiens, UniProt Q14833); assay: Fluorescent Imaging Plate Reader (FLIPR) assay for mGluR4 potentiators; type: cell-based; design: expressed in transfected cells; details: for EC50: inflection point of curve, potentiation of EC10 concentration of L-AP4 (30 nM), read-out: mGluR4 FLIPR Potency; for Emax: maximal activity relative to response with saturating concentration (10 uM) of agonist L-AP4, read-out: mGluR4 FLIPR % Max Efficacy
T1 sequence (Q14833 33-912): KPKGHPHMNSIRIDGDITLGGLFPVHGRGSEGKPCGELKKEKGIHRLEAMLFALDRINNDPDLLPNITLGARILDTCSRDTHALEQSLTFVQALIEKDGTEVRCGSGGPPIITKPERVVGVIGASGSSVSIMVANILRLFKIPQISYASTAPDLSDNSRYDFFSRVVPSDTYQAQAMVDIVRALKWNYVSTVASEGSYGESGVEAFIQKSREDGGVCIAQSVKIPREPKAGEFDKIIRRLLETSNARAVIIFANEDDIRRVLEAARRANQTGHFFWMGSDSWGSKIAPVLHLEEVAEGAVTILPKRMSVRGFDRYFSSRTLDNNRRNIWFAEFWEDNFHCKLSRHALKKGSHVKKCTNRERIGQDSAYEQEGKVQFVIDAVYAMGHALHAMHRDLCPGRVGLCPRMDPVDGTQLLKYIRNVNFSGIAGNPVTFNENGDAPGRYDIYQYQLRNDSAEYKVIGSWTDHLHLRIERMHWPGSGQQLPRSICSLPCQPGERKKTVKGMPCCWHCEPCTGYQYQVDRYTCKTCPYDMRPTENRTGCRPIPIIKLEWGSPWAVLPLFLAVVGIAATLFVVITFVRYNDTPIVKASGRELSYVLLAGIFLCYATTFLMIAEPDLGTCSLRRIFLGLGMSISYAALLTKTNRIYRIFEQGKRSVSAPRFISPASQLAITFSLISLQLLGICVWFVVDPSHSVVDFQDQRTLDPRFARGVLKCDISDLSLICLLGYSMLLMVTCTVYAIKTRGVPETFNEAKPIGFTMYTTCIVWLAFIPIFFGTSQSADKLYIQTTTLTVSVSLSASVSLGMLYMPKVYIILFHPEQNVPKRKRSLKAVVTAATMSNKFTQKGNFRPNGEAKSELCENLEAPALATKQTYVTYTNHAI
Protocol: Fluorescent Imaging Plate Reader (FLIPR) Assay for mGluR4 Potentiators Cells are grown in Corning […] cm^2 flasks in DMEM growth media at 37° C. and 5% CO2. Growth media contains: […] The day prior to the experiment the cells were plated in growth medium (minus glutamine) at 50K cells/well into Becton-Dickinson 384-well PDL-coated plates using a Labsystems Multidrop (0.1 ml/well). The cells are grown overnight at 37° C. and 6% CO2. The following day, the cells are washed with Assay Buffer at 37° C. using a Skatron EMBLA cell washer (3×100 μl, aspiration 3 mm from bottom will leave 30 μl of buffer in each well). Assay buffer is Hanks balanced salt solution with 20 mM HEPES, 2.5 mM probenecid and 0.1% BSA. Fluorescent dye, 30 μl of the diluted Fluo-4-AM, is added to each well of the plate. […] The assay plates are placed back into the 6% CO2 incubator and incubated at 37° C. for 60 min. The 384-well plates are washed with Assay Buffer at 37° C. on using a cell washer (3×100 μl, aspiration 3 mm from bottom, will leave 30 μl of buffer in each well). The experimental run is initiated and after 30 sec a dose of test compound is applied. The fluorescent response elicited by test compound is monitored for 5 min, any positive response detected at this stage is attributed to agonist properties of the test compound. […] Controls for the assay include a no compound control, a positive control which is a saturating concentration, 10 uM, of the agonist L-AP4. A 10 point dose response, with either 2-fold or 3-fold dilution steps, is performed and curve fitting algorithms, suitable for a sigmoidal dose response relationship, are used to fit the data. The inflection point of the curve provides a measure of compound potency. A comparison of the maximal level of activity achieved for a test compound, relative to the response achieved with a saturating concentration of the agonist L-AP4 provides a measure of compound efficacy.

[2] = target: T1, mGluR4; assay: mGluR4 binding assay (filtration, [3H] radiotracer displacement, in presence of L-AP4); design: expressed in transfected cells; host or cells: CHO cells; details: membranes from CHO cells expressing human mGluR4; 20 uM L-AP4; 7 nM radiotracer; 1 hour at room temperature
Protocol: Membranes were prepared from CHO cells expressing the human mGluR4 receptor. Cells were harvested using trypsin and then washed in assay buffer, assay buffer contains 50 mM HEPES, 1 mM EDTA and protease inhibitors (Boehringer Mannheim catalog #1 836 170). Harvested cells were pelleted by centrifugation and stored at −80° C. for a minimum of 12 hours. Cells were resuspended in assay buffer and lysed by a polytron, a low speed spin, 2000×g for 10 min, was used to recover unbroken cells for additional treatment using the polytron. The cleared supernatant from the low speed spins was subjected to a high speed spin, 96,000×g for 1 hour. The membrane pellet from the high speed spin was resuspended in assay buffer and used in the mGluR4 binding assay.
The binding assay follows a standard filtration binding paradigm. The binding buffer consists of 20 mM HEPES, 100 mM NaCl and 3 mM MgCl2, the pH of the buffer is 7.4. The assay is performed in a 96-well format with each well containing test compound, 25 to 50 ug of membrane protein, 20 uM L-AP4, and 7 nM radiotracer, [^3H]-N-[3-Chloro-4-(4-methyl-1,3-dioxo-1,3-dihydro-2H-isoindol-2-yl)phenyl]pyridine-2-carboxamide, which is disclosed in commonly owned U.S. patent application docket no. MRL-NOP-00030-US-PSP, filed contemporaneously with this application.
The binding reaction is incubated at room temperature for 1 hour, and then is passed through GF/B filter that was presoaked with 0.5% PEI. The cell membranes are collected on the filter and then washed five times with ˜5 ml ice cold binding buffer that contains 0.01% BSA. The washed filter plate is dried for 30 minutes at 37° C., scintillation fluid is added, and the amount of filter bound radioactivity is determined using a TopCount instrument. Total binding is determined in the absence of any test compound, but in the presence of the DMSO concentration that would result from the addition of test compound. To determine the level of non-specific binding for the radiotracer [^3H]-N-[3-Chloro-4-(4-methyl-1,3-dioxo-1,3-dihydro-2H-isoindol-2-yl)phenyl]pyridine-2-carboxamide, 5 uM of unlabeled […]N-[3-Chloro-4-(4-methyl-1,3-dioxo-1,3-dihydro-2H-isoindol-2-yl)phenyl]pyridine-2-carboxamide, is added to determine the level of non-specific binding.
A 10-point dose response, with either 2-fold or 3-fold dilution steps, is performed and curve fitting algorithms, suitable for a sigmoidal dose response relationship, are used to fit the data. The inflection point of the curve, or IC50, provides a measure of the affinity of a test compound for the mGluR4 receptor.

Compound	EC50 [1] [µM]	Emax [1] [%]	IC50 [2] [µM]
O=C(Nc1ccc(S(=O)(=O)Nc2ccccc2Cl)cc1)c1ccccn1 [Example 1, N-(4-{[(2-Chlorophenyl)amino]sulfonyl}phenyl)pyridine-2-carboxamide]	0.162	111	0.033
COc1cc(NC(=O)c2ccccn2)ccc1S(=O)(=O)Nc1ccccc1 [Example 6]	3.94	70	6.08

Other lines, results leading:

EC50 [1] [µM]	Emax [1] [%]	IC50 [2] [µM]	Compound
1.35	93	1.1	Cc1ccc(NS(=O)(=O)c2ccc(NC(=O)c3ccccn3)cc2)cc1 [Example 18]
0.134	110	0.141	O=C(Nc1ccc(S(=O)(=O)Nc2ccccc2Br)cc1)c1ccccn1 [Example 30]
0.48	124	0.182	O=C(Nc1ccc(S(=O)(=O)Nc2ccccc2Cc2ccccc2)cc1)c1ccccn1 [Example 41]
